# Data: ChEMBL document CHEMBL1641532, “Thiophene and bioisostere derivatives as new MMP12 inhibitors” (Bioorg Med Chem Lett, 2011)
# Biological target: Macrophage metalloelastase (Homo sapiens, UniProt P39900)
# Experiment: Inhibition of MMP-12 catalytic domain
# Macrophage metalloelastase, sequence (P39900 whole entry, the tested form may be a part): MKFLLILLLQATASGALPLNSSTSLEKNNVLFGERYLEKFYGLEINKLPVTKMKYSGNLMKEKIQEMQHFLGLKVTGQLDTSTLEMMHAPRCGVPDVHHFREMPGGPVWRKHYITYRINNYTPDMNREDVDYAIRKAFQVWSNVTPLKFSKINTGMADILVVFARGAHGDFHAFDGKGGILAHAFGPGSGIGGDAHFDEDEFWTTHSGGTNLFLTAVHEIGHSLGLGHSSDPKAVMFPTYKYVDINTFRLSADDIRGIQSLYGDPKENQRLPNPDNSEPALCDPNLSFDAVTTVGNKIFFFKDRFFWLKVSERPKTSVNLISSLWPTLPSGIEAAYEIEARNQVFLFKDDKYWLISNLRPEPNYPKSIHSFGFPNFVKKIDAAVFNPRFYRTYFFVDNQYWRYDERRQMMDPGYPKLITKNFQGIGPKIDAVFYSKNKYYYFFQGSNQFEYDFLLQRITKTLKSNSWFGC
row,SMILES,IC50 [nM]
1,O=C(NC[C@H]1CC[C@H](C(=O)O)CC1)c1cc(-c2ccc(OC(F)(F)F)cc2)cs1,400
2,O=C(NC[C@H]1CC[C@H](C(=O)O)CC1)c1cc(-c2ccc(OC(F)(F)F)cc2)ns1,3600
3,O=C(NC[C@H]1CC[C@H](C(=O)O)CC1)c1cc(-c2ccc(OC(F)(F)F)cc2)sn1,31000
4,O=C(O)C[C@@H](NC(=O)c1cc(-c2ccc(-c3ccncc3)cc2)c(F)s1)c1ccccc1,13

# Next, values leading:
row,IC50 [nM],SMILES
1,200,O=C(O)C[C@@H](NC(=O)c1cc(-c2ccc(OC(F)(F)F)cc2)c(F)s1)c1ccccc1
2,85,NC(=O)C[C@@H](NC(=O)c1cc(-c2ccc(OC(F)(F)F)cc2)c(F)s1)c1ccccc1
